In patent publication US9145411B2, “Substituted amino-pyrimidine derivatives” (Asana Biosciences, LLC, priority 2012, dated 2015):

Key:
PI3Kα (wild-type) = target: T1, PI3Kα (wild-type) (Homo sapiens, UniProt P42336); assay: PI3 Kinase TR-FRET assay, PI3Kα (wild-type); format: biochemical; conditions: wild-type P110/P85α, 10 μM ATP
T1 construct: made in house; host or cells: SF9 insect cells
Procedure: The ability of compounds of the invention to inhibit PI3K activity was determined in a homogeneous TR-FRET assay using a PI3K assay kit (Millipore, USA; cat #33-016) according to manufacturer's instructions. PI3-Kinases (isoforms α, β, γ and δ) catalyze the phosphorylation of phosphatidylinositol, PIP2 to PIP3 in the presence of ATP and Mg^2+. The PIP3 product is detected by displacement of biotin-PIP3 from an energy transfer complex consisting of Europium labeled anti-GST monoclonal antibody, a GST-tagged PH domain, biotinylated PIP3 and Streptavidin-APC. Excitation of Europium in the complex results in an energy transfer to the APC and a fluorescence emission at 665 nm. The PIP3 product displaces biotin-PIP3 from the complex resulting in a loss of energy transfer and thus a decrease in signal.
To test for the ability of compounds to inhibit the activity of PI3Kα (wild-type), exemplary compounds of formula (I) were dissolved in DMSO and directly distributed into 384-well plates at a volume of 0.5 μL. 14.5 μL of P110/P85α/PIP2 mixture in buffer (obtained from the Millipore kit) containing MgCl2 (40 mM) and DTT (5 mM) was added to compound wells and incubated for 60 minutes at room temperature. P110/P85α was expressed in SF9 insect cells and purified nickel column extraction. Five ng of wild-type P110/P85α was used in the assay. The kinase reaction was started by the addition of ATP. The assay concentrations of both PIP2 and ATP were 10 μM. The reaction mixture was incubated for 30 minutes at room temperature and was terminated by the addition of stop mix and detection mix. Fluorescence was measured at 615 and 665 nm upon excitation at 340 nm in a Victor™ V5 fluorometer (Perkin Elmer, USA). The fluorescence emission ratio at 665 to 615 nm, proportional to the kinase activity, was plotted against the compound concentration to generate dose-response curves and IC50 values were determined using GraphPad Prism® 5 software.

mTOR kinase = target: T2, mTOR kinase (Homo sapiens, UniProt P42345); assay: mTOR kinase TR-FRET assay; format: biochemical; conditions: 20 μM ATP
T2 construct: purchased Millipore, USA
T2 sequence (P42345 1362-2549 limits assumed): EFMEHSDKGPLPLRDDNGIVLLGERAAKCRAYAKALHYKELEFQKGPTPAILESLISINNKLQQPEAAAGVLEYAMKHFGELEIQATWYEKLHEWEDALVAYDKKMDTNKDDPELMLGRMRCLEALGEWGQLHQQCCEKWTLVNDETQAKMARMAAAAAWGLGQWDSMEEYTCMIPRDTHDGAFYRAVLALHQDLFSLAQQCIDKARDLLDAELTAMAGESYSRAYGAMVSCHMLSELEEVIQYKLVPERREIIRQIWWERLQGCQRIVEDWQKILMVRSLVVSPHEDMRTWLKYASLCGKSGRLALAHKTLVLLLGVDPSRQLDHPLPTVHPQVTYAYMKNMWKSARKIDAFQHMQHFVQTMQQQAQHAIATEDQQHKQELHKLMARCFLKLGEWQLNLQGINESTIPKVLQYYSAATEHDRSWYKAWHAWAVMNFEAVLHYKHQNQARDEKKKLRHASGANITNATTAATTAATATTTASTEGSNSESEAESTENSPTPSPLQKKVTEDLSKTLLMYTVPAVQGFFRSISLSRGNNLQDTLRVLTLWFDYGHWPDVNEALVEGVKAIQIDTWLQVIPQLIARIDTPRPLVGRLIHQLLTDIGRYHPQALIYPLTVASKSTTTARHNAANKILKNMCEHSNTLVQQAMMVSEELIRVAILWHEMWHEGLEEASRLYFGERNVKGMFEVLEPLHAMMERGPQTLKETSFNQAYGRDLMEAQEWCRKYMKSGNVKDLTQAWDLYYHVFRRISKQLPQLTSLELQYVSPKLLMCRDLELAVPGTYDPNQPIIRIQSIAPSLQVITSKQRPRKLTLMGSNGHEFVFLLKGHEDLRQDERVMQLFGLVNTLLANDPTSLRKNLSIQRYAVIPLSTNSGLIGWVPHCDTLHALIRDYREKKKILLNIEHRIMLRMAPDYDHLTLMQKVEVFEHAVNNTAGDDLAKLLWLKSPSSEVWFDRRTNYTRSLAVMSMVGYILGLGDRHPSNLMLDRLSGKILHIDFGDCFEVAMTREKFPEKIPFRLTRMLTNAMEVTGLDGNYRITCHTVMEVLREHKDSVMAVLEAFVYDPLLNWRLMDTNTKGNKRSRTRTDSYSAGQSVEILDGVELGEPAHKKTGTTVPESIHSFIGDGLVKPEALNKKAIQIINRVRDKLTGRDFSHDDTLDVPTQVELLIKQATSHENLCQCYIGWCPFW
Procedure: Compound inhibition for mTOR kinase was determined in a homogeneous TR-FRET assay using the Lance® ULight-p70 S6K (Thr 389) peptide (obtained from Perkin-Elmer). The ULight™-labeled synthetic peptide contains the amino acid residues surrounding Thr389 of human p70 S6K. The ULight-p70 S6K peptide is phosphorylated at Thr389 by mTOR. Phosphorylation motif: LGFTYVAP as substrate.
The compound dilution was carried out in 100% DMSO followed by a buffer dilution. The reaction buffer was HEPES (50 mM pH 7.5), EGTA (1 mM), MnCl2 (3 mM). Test compounds at various concentrations were pre-incubated with mTOR (Millipore, USA; 5 ng) for 60 min, and then the Lance® ULight-p70 S6K (Thr 389) peptide (50 nM) was added along with ATP (20 μM). After incubating the reaction mixture for 60 minutes at room temperature, the kinase reaction was terminated by the addition of EDTA (10 mM) followed by the addition of detection mix, i.e., 1 nM Eu-labeled anti-phospho-substrate antibody (Perkin Elmer, USA). The fluorescence emission at […] was measured upon excitation at 340 nm. IC50 values were subsequently determined using a sigmoidal dose-response curve (variable slope) in GraphPad Prism® 5 software.
Compounds of formula (I) caused inhibition of mTOR kinase activity as determined by this assay.

PC3 cells = assay: XTT assay for cell viability, PC3 cells; format: cell-based; conditions: Homo sapiens, PC-3; PC3 cell proliferation, 96 hours
Procedure: Using a commercial kit from Sigma Aldrich (Catalog #X34251) and following its protocol, PC3 cells in the log phase of growth were employed and seeded at an optimal density of 1000 cell/well on to 96 well plates and incubated for 24 hours followed by the addition of compounds of formula (I) in serial dilutions. Compound dilutions were made in DMSO. The cells were incubated with the compounds of formula (I) for 96 hours and XTT tetrazolium dye (Sigma, USA) was subsequently added and incubated at 37° C. After the color formation, absorbance was measured at 465 nm in a Spectramax® Gemini spectrophotometer. EC50 values were calculated using a sigmoidal dose response curve fit in GraphPad Prism® v5 software. The tested compounds of formula (I) which caused inhibition of PC3 cell proliferation as determined by this assay protocol are shown in Table 2.

T1 sequence (P42336 whole entry, species assumed): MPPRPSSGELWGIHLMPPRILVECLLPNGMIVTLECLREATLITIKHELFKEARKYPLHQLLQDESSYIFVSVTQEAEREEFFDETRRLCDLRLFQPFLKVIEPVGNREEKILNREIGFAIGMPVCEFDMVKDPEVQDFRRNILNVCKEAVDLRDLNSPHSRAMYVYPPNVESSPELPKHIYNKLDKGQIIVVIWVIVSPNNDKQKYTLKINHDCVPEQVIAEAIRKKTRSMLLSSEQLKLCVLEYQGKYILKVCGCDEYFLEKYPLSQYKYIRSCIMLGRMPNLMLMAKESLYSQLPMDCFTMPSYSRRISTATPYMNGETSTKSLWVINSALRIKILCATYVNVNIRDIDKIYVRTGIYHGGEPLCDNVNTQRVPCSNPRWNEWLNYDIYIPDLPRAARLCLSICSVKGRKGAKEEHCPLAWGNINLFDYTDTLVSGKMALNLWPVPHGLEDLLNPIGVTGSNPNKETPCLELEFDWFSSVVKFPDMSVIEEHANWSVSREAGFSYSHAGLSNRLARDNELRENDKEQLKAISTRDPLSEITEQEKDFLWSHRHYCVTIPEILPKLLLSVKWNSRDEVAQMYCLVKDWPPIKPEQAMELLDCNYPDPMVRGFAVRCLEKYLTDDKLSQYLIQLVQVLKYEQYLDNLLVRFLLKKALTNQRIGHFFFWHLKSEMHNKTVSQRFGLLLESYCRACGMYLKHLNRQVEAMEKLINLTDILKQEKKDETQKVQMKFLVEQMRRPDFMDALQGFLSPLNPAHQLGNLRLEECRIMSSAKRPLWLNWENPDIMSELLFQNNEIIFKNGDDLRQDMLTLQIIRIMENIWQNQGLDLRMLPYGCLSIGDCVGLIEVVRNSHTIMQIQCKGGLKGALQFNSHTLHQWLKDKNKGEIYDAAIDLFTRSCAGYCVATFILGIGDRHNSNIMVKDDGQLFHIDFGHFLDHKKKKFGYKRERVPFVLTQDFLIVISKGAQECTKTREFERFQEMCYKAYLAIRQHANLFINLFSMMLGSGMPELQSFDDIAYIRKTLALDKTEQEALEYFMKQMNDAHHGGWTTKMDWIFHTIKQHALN
T1 sequence (P27986 whole entry partner, species assumed): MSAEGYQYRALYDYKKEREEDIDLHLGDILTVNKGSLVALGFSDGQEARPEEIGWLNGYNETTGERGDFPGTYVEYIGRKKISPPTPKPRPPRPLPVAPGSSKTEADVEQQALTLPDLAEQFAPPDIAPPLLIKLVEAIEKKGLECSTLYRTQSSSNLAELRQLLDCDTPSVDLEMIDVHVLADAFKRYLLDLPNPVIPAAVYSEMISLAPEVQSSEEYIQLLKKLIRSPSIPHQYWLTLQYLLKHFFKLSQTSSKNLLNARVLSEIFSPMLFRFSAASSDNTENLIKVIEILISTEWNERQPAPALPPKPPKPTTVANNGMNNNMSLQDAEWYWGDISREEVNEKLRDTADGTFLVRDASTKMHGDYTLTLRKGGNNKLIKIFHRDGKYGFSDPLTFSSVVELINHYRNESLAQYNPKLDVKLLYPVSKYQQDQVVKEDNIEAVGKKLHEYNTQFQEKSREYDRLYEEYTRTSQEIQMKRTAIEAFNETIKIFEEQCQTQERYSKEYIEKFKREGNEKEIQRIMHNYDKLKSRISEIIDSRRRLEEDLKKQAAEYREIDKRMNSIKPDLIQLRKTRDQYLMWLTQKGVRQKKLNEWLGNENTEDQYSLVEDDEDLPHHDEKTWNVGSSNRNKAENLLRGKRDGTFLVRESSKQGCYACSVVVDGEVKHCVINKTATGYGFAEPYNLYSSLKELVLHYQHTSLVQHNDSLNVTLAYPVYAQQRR

IC50 (PI3Kα (wild-type)) | IC50 (mTOR kinase) | IC50 (PC3 cells) | Compound
< 50 nM | 50 to 200 nM | 501 to 5000 nM | CC(=O)N1CCN(C(=O)c2cccc(-c3cnc4c(N5CCOCC5)nc(-c5cnc(N)nc5)nc4c3)c2)CC1 [Example 35, 1-(4-(3-(2-(2-amino-pyrimidin-5-yl)-4-morpholinopyrido[3,2-d]-pyrimidin-7-yl)benzoyl)-piperazin-1-yl)ethanone]
< 50 nM | 50 to 200 nM | > 1000 nM | Nc1ncc(-c2nc(N3CCOCC3)c3ncc(-c4ccc(C(=O)Nc5ccncc5)cc4)cc3n2)cn1 [Example 38, 4-(2-(2-aminopyrimidin-5-yl)-4-morpholino-pyrido[3,2-d]pyrimidin-7-yl)-N-(pyridin-4-yl)-benzamide]
< 50 nM | < 50 nM | 100 to 500 nM | CC(F)C(=O)Nc1cccc(-c2cnc3c(N4CCOCC4)nc(-c4cnc(N)nc4)nc3c2)c1 (stereo not drawn) [Example 51, N-(3-(2-(2-amino-pyrimidin-5-yl)-4-morpholinopyrido[3,2-d]pyrimidin-7-yl)phenyl)-2-fluoropropanamide]
< 50 nM | 50 to 200 nM | 100 to 500 nM | CC(=O)Nc1ccc(F)c(-c2cnc3c(N4CCOCC4)nc(-c4cnc(N)nc4)nc3c2)c1 [Example 55, N-(3-(2-(2-amino-pyrimidin-5-yl)-4-morpholinopyrido[3,2-d]pyrimidin-7-yl)-4-fluorophenyl)acetamide]
< 50 nM | 50 to 200 nM | 501 to 5000 nM | Nc1ncc(-c2nc(N3CCOCC3)c3ncc(-c4cccc(NC(=O)C5CCCCC5)c4)cc3n2)cn1 [Example 60, N-(3-(2-(2-amino-pyrimidin-5-yl)-4-morpholinopyrido[3,2-d]pyrimidin-7-yl)-phenyl)cyclohexane-carboxamide]
< 50 nM | 201 to 10000 nM | 501 to 5000 nM | Nc1ncc(-c2nc(N3CCOCC3)c3ncc(-c4cccc(NC(=O)C56CC7CC(CC(C7)C5)C6)c4)cc3n2)cn1 [Example 65, N-(3-(2-(2-amino-pyrimidin-5-yl)-4-morpholinopyrido[3,2-d]pyrimidin-7-yl)-phenyl)adamantane-1-carboxamide]
< 50 nM | < 50 nM | 100 to 500 nM | Nc1ncc(-c2nc(N3CCOCC3)c3ncc(-c4ccc(NC(=O)c5cccnc5)cc4)cc3n2)cn1 [Example 77, N-(4-(2-(2-amino-pyrimidin-5-yl)-4-morpholinopyrido[3,2-d]pyrimidin-7-yl)-phenyl)nicotinamide]
< 50 nM | 50 to 200 nM | 100 to 500 nM | CN1CCN(CC(=O)Nc2cccc(-c3cnc4c(N5CCOCC5)nc(-c5cnc(N)nc5)nc4c3)c2)CC1 [Example 83, N-(3-(2-(2-aminopyrimidin-5-yl)-4-morpholinopyrido[3,2-d]pyrimidin-7-yl)phenyl)-2-(4-methylpiperazin-1-yl)acetamide]
< 50 nM | < 50 nM | 501 to 5000 nM | CN1CCN(C(=O)Nc2cccc(-c3cnc4c(N5CCOCC5)nc(-c5cnc(N)nc5)nc4c3)c2)CC1 [Example 89, N-(3-(2-(2-aminopyrimidin-5-yl)-4-morpholinopyrido[3,2-d]pyrimidin-7-yl)phenyl)-4-methylpiperazine-1-carboxamide]
< 50 nM | < 50 nM | 100 to 500 nM | Nc1ncc(-c2nc(N3CCOCC3)c3ncc(-c4cccc(C(=O)Nc5ccncc5F)c4)cc3n2)cn1 [Example 97, 3-(2-(2-aminopyrimidin-5-yl)-4-morpholinopyrido[3,2-d]-pyrimidin-7-yl)-N-(3-fluoropyridin-4-yl)-benzamide]
< 50 nM | < 50 nM | 100 to 500 nM | Nc1ncc(-c2nc(N3CCOCC3)c3ncc(-c4cccc(C(=O)NC5CC5)c4)cc3n2)cn1 [Example 98, 3-(2-(2-aminopyrimidin-5-yl)-4-morpholinopyrido[3,2-d]-pyrimidin-7-yl)-N-cyclopropylbenzamide]
< 50 nM | < 50 nM | 100 to 500 nM | Nc1ncc(-c2nc(N3CCOCC3)c3ncc(-c4cccc(NC(=O)c5cncc(F)c5)c4)cc3n2)cn1 [Example 99, N-(3-(2-(2-amino-pyrimidin-5-yl)-4-morpholinopyrido[3,2-d]-pyrimidin-7-yl)phenyl)-5-fluoronicotinamide]
< 50 nM | 50 to 200 nM | 501 to 5000 nM | CN1CCN(c2cncc(-c3cnc4c(N5CCOCC5)nc(-c5cnc(N)nc5)nc4c3)c2)CC1 [Example 100, 5-(7-(5-(4-methyl-piperazin-1-yl)pyridin-3-yl)-4-morpholino-pyrido[3,2-d]pyrimidin-2-yl)pyrimidin-2-amine]
< 50 nM | 50 to 200 nM | 100 to 500 nM | CN1CCN(c2cccc(-c3cnc4c(N5CCOCC5)nc(-c5cnc(N)nc5)nc4c3)c2)CC1 [Example 101, 5-(7-(3-(4-methyl-piperazin-1-yl)phenyl)-4-morpholinopyrido[3,2-d]-pyrimidin-2-yl)pyrimidin-2-amine]
< 50 nM | 50 to 200 nM | 100 to 500 nM | CN(C)CCNC(=O)c1cccc(-c2cnc3c(N4CCOCC4)nc(-c4cnc(N)nc4)nc3c2)c1 [Example 102, 3-(2-(2-aminopyrimidin-5-yl)-4-morpholinopyrido[3,2-d]-pyrimidin-7-yl)-N-(2-(dimethylamino)ethyl)-benzamide]
< 50 nM | 50 to 200 nM | 501 to 5000 nM | Nc1ncc(-c2nc(N3CCOCC3)c3ncc(-c4cccc(N5CCNCC5)c4)cc3n2)cn1 [Example 106, 5-(4-morpholino-7-(3-(piperazin-1-yl)-phenyl)pyrido[3,2-d]-pyrimidin-2-yl)pyrimidin-2-amine]
< 50 nM | < 50 nM | 100 to 500 nM | CC(C)(O)C(=O)N1CCN(c2cccc(-c3cnc4c(N5CCOCC5)nc(-c5cnc(N)nc5)nc4c3)c2)CC1 [Example 108, 1-(4-(3-(2-(2-amino-pyrimidin-5-yl)-4-morpholinopyrido[3,2-d]pyrimidin-7-yl)-phenyl)piperazin-1-yl)-2-hydroxy-2-methylpropan-1-one]
< 50 nM | 50 to 200 nM | 100 to 500 nM | Nc1ncc(-c2nc(N3CCOCC3)c3ncc(-c4ccc5c(c4)NC(=O)CO5)cc3n2)cn1 [Example 111, 6-(2-(2-aminopyrimidin-5-yl)-4-morpholinopyrido[3,2-d]pyrimidin-7-yl)-2H-benzo[b][1,4]oxazin-3(4H)-one]
< 50 nM | < 50 nM | 501 to 5000 nM | Nc1ncc(-c2nc(N3CCOCC3)c3ncc(-c4cccc(N5CCN(CCO)CC5)c4)cc3n2)cn1 [Example 113, 2-(4-(3-(2-(2-amino-pyrimidin-5-yl)-4-morpholinopyrido[3,2-d]pyrimidin-7-yl)-phenyl)piperazin-1-yl)-ethanol]
< 50 nM | < 50 nM | 100 to 500 nM | CC(=O)Nc1cc(-c2cnc3c(N4CCOCC4)nc(-c4cnc(N)nc4)nc3c2)ccc1N1CCN(C)CC1 [Example 114, N-(5-(2-(2-amino-pyrimidin-5-yl)-4-morpholinopyrido[3,2-d]pyrimidin-7-yl)-2-(4-methylpiperazin-1-yl)-phenyl)acetamide]
